Experimental data: ChEMBL document CHEMBL4020773, “Identification of quinazoline based inhibitors of IRAK4 for the treatment of inflammation” (Bioorg Med Chem Lett, 2017)

Legend:
[1] = target: T1, Interleukin-1 receptor-associated kinase 4 (Homo sapiens) (UniProt Q9NWZ3); experiment: Inhibition of IRAK4 in human whole blood assessed as reduction in R848-stimulated TNF alpha production preincubated for 30 mins followed by R848 addition measured after 5 hrs
T1 sequence (whole entry): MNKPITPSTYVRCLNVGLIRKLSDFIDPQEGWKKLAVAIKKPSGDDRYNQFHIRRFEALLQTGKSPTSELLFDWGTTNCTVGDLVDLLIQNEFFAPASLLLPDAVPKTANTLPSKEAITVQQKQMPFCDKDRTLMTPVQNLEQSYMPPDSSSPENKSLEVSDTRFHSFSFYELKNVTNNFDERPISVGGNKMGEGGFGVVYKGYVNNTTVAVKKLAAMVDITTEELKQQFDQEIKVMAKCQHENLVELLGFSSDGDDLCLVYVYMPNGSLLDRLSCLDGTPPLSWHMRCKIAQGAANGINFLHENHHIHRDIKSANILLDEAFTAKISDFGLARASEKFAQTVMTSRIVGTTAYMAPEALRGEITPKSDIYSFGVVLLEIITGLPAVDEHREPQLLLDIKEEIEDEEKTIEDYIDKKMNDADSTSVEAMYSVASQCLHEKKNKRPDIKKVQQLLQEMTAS

Rattus norvegicus [2] = experiment: In vivo inhibition of IRAK4 in Lewis rat assessed as reduction in R848-stimulated serum IL-6 secretion at 100 mg/kg, po administered once daily pretreated for 1 hr followed by R848 challenge measured after 1.5 hrs relative to control; type: functional
[3] = Clearance in rat; type: ADME; conditions: in vivo
Rattus norvegicus [4] = experiment: In-vivo inhibition of IRAK4 in po dosed Lewis rat assessed as reduction in R848-stimulated serum IL-6 secretion administered once daily pretreated for 1 hr followed by R848 challenge measured after 1.5 hrs; type: functional, organism-based
Rattus norvegicus [5] = experiment: Terminal plasma concentration in Lewis rat at 10 mg/kg, po administered once daily; type: ADME, organism-based; conditions: in vivo, read-out: Cp(T)
[6] = Apparent permeability in MDCK cells; type: ADME, cell-based, Canis lupus familiaris; conditions: dog
Rattus norvegicus [7] = experiment: Terminal plasma concentration in Lewis rat at 30 mg/kg, po administered once daily; type: ADME, organism-based; conditions: in vivo, read-out: Cp(T)
Rattus norvegicus [8] = experiment: In vivo inhibition of IRAK4 in Lewis rat assessed as reduction in R848-stimulated serum IL-6 secretion at 10 mg/kg, po administered once daily pretreated for 1 hr followed by R848 challenge measured after 1.5 hrs relative to control; type: functional
Rattus norvegicus [9] = experiment: Terminal plasma concentration in Lewis rat at 100 mg/kg, po administered once daily; type: ADME, organism-based; conditions: in vivo, read-out: Cp(T)
[10] = target: T2, Interleukin-1 receptor-associated kinase 4 (Homo sapiens, UniProt Q9NWZ3); experiment: Inhibition of recombinant human full length GST tagged IRAK4 expressed in baculovirus infected Sf9 cells using RP7030 peptide as substrate after 30 mins in presence of ATP by fluorescence polarization assay
T2 sequence (Q9NWZ3 whole entry): T1 sequence (whole entry)

[11] = target: T3, Interleukin-1 receptor-associated kinase 4 (Rattus norvegicus, UniProt D4A7K4); experiment: Inhibition of IRAK4 in Lewis rat whole blood assessed as reduction in R848-stimulated TNF alpha production after 4 hrs
T3 sequence (D4A7K4 whole entry): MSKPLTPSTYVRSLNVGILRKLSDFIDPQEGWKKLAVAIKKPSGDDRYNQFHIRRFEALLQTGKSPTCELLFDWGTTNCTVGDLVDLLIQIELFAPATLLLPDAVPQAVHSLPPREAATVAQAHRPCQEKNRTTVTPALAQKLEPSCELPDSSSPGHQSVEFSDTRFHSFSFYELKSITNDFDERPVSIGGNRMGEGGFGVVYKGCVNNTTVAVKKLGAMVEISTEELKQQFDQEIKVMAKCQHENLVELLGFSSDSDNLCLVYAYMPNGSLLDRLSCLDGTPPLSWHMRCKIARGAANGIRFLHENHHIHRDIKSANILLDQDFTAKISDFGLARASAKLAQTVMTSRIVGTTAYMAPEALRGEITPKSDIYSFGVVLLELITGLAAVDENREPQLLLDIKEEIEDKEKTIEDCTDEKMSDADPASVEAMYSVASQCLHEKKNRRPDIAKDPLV

[12] = Oral bioavailability in rat; type: ADME, organism-based; conditions: in vivo
Rattus norvegicus [13] = experiment: Terminal plasma concentration in Lewis rat at 3 mg/kg, po administered once daily; type: ADME, organism-based; conditions: in vivo, read-out: Cp(T)
[14] = Half life in rat; type: ADME; conditions: in vivo
Rattus norvegicus [15] = experiment: In vivo inhibition of IRAK4 in Lewis rat assessed as reduction in R848-stimulated serum IL-6 secretion at 30 mg/kg, po administered once daily pretreated for 1 hr followed by R848 challenge measured after 1.5 hrs relative to control; type: functional
Rattus norvegicus [16] = experiment: In vivo inhibition of IRAK4 in Lewis rat assessed as reduction in R848-stimulated serum IL-6 secretion at 3 mg/kg, po administered once daily pretreated for 1 hr followed by R848 challenge measured after 1.5 hrs relative to control; type: functional

SMILES | IC50 [1] | IC50 [10] | further results
N#Cc1ccc2ncnc(N[C@H]3CC[C@H](N4CCOCC4)CC3)c2c1 | 300 nM | 7 nM | inhibition in vivo at 100 mg/kg (Rattus norvegicus [2]): 91%; clearance [3]: 22 mL/min/kg; inhibition (Rattus norvegicus [4]): Dose-dependent effect; concentration (Rattus norvegicus [5]): 19 µM; Papp [6]: 41 ×10⁻⁶ cm/s; concentration (Rattus norvegicus [7]): 54 µM; inhibition in vivo at 10 mg/kg (Rattus norvegicus [8]): 2%; concentration (Rattus norvegicus [9]): 112 µM; EC50 [11]: 2300 nM; bioavailability [12]: 73%; concentration (Rattus norvegicus [13]): 5.7 µM; half-life [14]: 1.3 h; inhibition in vivo at 30 mg/kg (Rattus norvegicus [15]): 57%
C[C@@H]1C[C@H]2[C@@H]3CCC4=CC(=O)C=C[C@]4(C)[C@@]3(F)[C@@H](O)C[C@]2(C)[C@@]1(O)C(=O)CO [DEXAMETHASONE] | – | – | inhibition in vivo at 3 mg/kg (Rattus norvegicus [16]): 86%; concentration (Rattus norvegicus [13]): 10 µM
N#Cc1ccc2ncnc(N[C@H]3CC[C@H](N4CCC(F)(F)CC4)CC3)c2c1 | 200 nM | – | –
N#Cc1ccc2ncnc(N[C@H]3CC[C@H](N4CCCC4)CC3)c2c1 | 300 nM | – | –
N#Cc1ccc2ncnc(N[C@H]3CC[C@H](N4CCC(F)CC4)CC3)c2c1 | 100 nM | – | –
CN(C)[C@H]1CC[C@H](Oc2ncnc3ccc([N+](=O)[O-])cc23)CC1 | 2000 nM | 58 nM | –
CN(C)[C@H]1CC[C@H](Nc2ncnc3cc(F)c(F)cc23)CC1 | > 10000 nM | – | –
N#Cc1ccc2ncnc(N[C@H]3CC[C@H](N4CCC4)CC3)c2c1 | 620 nM | 35 nM | –
N#Cc1ccc2ncnc(N[C@H]3CC[C@H](N)CC3)c2c1 | 1400 nM | 32 nM | –
CS(=O)(=O)N1CCN([C@H]2CC[C@H](Nc3ncnc4ccc(C#N)cc34)CC2)CC1 | 330 nM | – | –
CN1CCN([C@H]2CC[C@H](Nc3ncnc4ccc(C#N)cc34)CC2)CC1 | 274 nM | – | –
CNCCCCc1c(-c2cc(C)cc(C)c2)cnc2ccc(-c3cncc(O)c3)cc12 | – | – | Papp [6]: 11 ×10⁻⁶ cm/s

The next lines start with results.

IC50 [1] | IC50 [10] | SMILES | further results
2500 nM | 12 nM | CN(C)[C@H]1CC[C@H](Nc2ncnc3ccc(C4CC4)cc23)CC1 | –
770 nM | – | CN(C)[C@H]1CC[C@H](Nc2ncnc3ccc(C#N)cc23)CC1 | EC50 [11]: 1700 nM
1100 nM | 16 nM | CC(C)c1ccc2ncnc(N[C@H]3CC[C@H](N(C)C)CC3)c2c1 | –
1200 nM | 17 nM | CCc1ccc2ncnc(N[C@H]3CC[C@H](N(C)C)CC3)c2c1 | –
620 nM | – | CN(C)[C@H]1CC[C@H](Nc2ncnc3ccc(C(F)(F)F)cc23)CC1 | –
1100 nM | 16 nM | COc1ccc2ncnc(N[C@H]3CC[C@H](N(C)C)CC3)c2c1 | –
1800 nM | – | Cc1ccc2ncnc(N[C@H]3CC[C@H](N(C)C)CC3)c2c1 | –
290 nM | 10 nM | CN(C)[C@H]1CC[C@H](Nc2ncnc3ccc(Br)cc23)CC1 | –
